{"source": "patent US7371364B2", "about": "“Cyclic peptide and imaging compound compositions and uses for targeted imaging and therapy” (Board of Regents, The University of Texas System, priority 2003, dated 2008)", "key": {"HT1080 tumor": {"tested_on": "HT1080 tumor", "experiment": "In vivo NIR fluorescent imaging with HWG imaging agent", "parameters": "species or system mice", "details": "subcutaneous HT1080 tumor, 27 hours after i.v. injection, 15 nmol/mouse", "procedure": "(§1) Four to six week-old athymic nude mice (18-22 g, Harlan Sprague Dawley, Inc., Indianapolis, Ind.) were housed 5 per cage with sterilized pet chow (Harlan Sprague Dawley) and sterilized water. Animals were maintained in a pathogen-free mouse colony in the Department of Veterinary Medicine at the University of Texas M.D. Anderson Cancer Center. All experiments were performed in accordance with the guidelines of the Institutional Animal Care and Use Committee. Tumor cells were harvested near confluence by incubation with 0.05% trypsin-EDTA. Cells were pelleted by centrifugation at 450×g for 5 minutes and resuspended in sterile PBS. Cells (2-3×10^6/animal) were implanted subcutaneously into the chest wall or the hind legs of the mice. Human PC-3 prostate tumors were obtained by intratibia injection of PC-3 cells into male nude mice. Human U87 glioma tumors were obtained by intracranial injection.\n(§2) In vivo fluorescence imaging was accomplished by illuminating the animal with light from a laser diode (785 nm, 80 mW for IGC; 660 nm, 35 mW for Cy 5.5 dyes) expanded to an approximate 8 cm diameter circular area. The re-emitted fluorescent light was collected by an image intensifier (model FS9910C, ITT Night Vision, Roanoke, Va.) lens-coupled to a CCD camera (model CH350, Photometrics, Tucson, Ariz.). The imaging was designed so that the field of view could be varied from 3×3 cm to over 12×12 cm by varying the image distance of the 50 mm lens used to focus the image onto the photocathode of the intensifier. The lens was fitted with a holographic notch-plus filter (785 nm center wavelength for ICG and 660 nm center wavelength for Cy5.5 dyes; Kaiser Optical Systems, Inc., Ann Arbor, Mich.) and a bandpass filter (830 nm center wavelength for ICG, 710 nm center wavelength for Cy5.5 dyes) to reject back-scattered and reflected excitation photons. Image acquisition was accomplished using V++ software (Digital Optics, Auckland, New Zealand) and obtained images were stored in uncompressed tagged image file format (tiff). Data processing and analysis was accomplished using Matlab software (The Math Works, Inc., Natick, Mass.)."}, "human glioma U87 tumor": {"tested_on": "human glioma U87 tumor", "experiment": "In vivo NIR fluorescent imaging with HWG imaging agent", "parameters": "species or system mice", "procedure": "as §1, §2"}, "MDA-MB-468 tumors": {"tested_on": "MDA-MB-468 tumors", "experiment": "In vivo NIR fluorescent imaging with HWG imaging agent", "parameters": "species or system mice", "details": "subcutaneous MDA-MB-468 tumors, 15 nmol per mouse", "procedure": "as §1, §2"}, "KS1767 tumors": {"tested_on": "KS1767 tumors", "experiment": "In vivo NIR fluorescent imaging with HWG imaging agent", "parameters": "species or system mice", "details": "subcutaneous KS1767 tumors, 15 nmol per mouse", "procedure": "as §1, §2"}, "SKBr-3 tumors": {"tested_on": "SKBr-3 tumors", "experiment": "In vivo NIR fluorescent imaging with HWG imaging agent", "parameters": "species or system mice", "details": "4 days after i.v. injection, 15 nmol per mouse", "procedure": "as §1, §2"}, "human tumor cells": {"tested_on": "human tumor cells", "experiment": "In vitro tumor cell binding study (fluorescence microscopy)", "assay_type": "cell-based", "procedure": "All human tumor cell-lines were obtained from American Type Culture Collection (Rockville, Md.) and were maintained at 37° C. in a humidified atmosphere containing 5% CO2 in Dulbecco's Modified Eagle's Medium/Nutrient Mixture F-12 Ham (DMEM/F12) and 10% FBS (Gibco, Grand Island, N.Y.).\nCells were seeded on cover slips in 24-well plates (Becton Dickinson Labware, Franklin Lakes, N.J.) and incubated in DMEM/F12 culture medium (0.5 ml/well) overnight. Cy5.5 and Cy5.5-HWG polypeptide imaging agents were added into each well at the indicated concentrations. For the blocking study, doxycycline was added to the culture medium followed by the addition of Cy5.5-HWG polypeptide imaging agent 1 hour later. After an incubation period of 5-60 minutes at 37° C., cells were washed twice with PBS and incubated in a solution of Sytox Green in 95% ethyl alcohol (1 μM, Molecular Probe, Eugene, Oreg.) for 15 minutes to fix and stain cell nuclei. For staining of MMP expression, cells that were pretreated with Cy5.5-HWG polypeptide and stained with Sytox Green were incubated with anti-MMP antibody (Sigma) (1 mg/ml; 1:200 dilution) for 1 hour at room temperature. The cells were then washed and incubated with Texas Red conjugated go at anti-rabbit IgG (Molecular Probe, 4 μg/ml) at room temperature for 1 hour. Cells were washed again with PBS and the cover slips were mounted for microscopic examination using a DMR microscope (Leica Microsystems, Inc., Brannockburn, Ill.). The microscope was equipped with a 75W Xenon lamp, 775 nm/845 nm, 560 nm/645 nm, and 480 nm/535 nm (Excitation/emission) filters (Chroma Technology Corp., Brattleboro, Vt.), a Hamamatsu B/W Chilled CCD camera (Hamamatsu Photonics K.K., Hamamatsu City, Japan), and Image-Pro Plus 4.5.1 software (Media Cybernetics, Silver Spring, Md.). In the multiple staining images, Cy5.5, MMPs, and Sytox Green were pseudocolored red, green, and blue, respectively."}, "[1]": {"tested_on": "intratibia PC-3 prostate tumors", "experiment": "In vivo NIR fluorescent imaging with HWG imaging agent", "parameters": "species or system mice", "procedure": "Four to six week-old athymic nude mice (18-22 g, Harlan Sprague Dawley, Inc., Indianapolis, Ind.) were housed 5 per cage with sterilized pet chow (Harlan Sprague Dawley) and sterilized water. Animals were maintained in a pathogen-free mouse colony in the Department of Veterinary Medicine at the University of Texas M.D. Anderson Cancer Center. All experiments were performed in accordance with the guidelines of the Institutional Animal Care and Use Committee. Tumor cells were harvested near confluence by incubation with 0.05% trypsin-EDTA. Cells were pelleted by centrifugation at 450×g for 5 minutes and resuspended in sterile PBS. Cells (2-3×10^6/animal) were implanted subcutaneously into the chest wall or the hind legs of the mice. Human PC-3 prostate tumors were obtained by intratibia injection of PC-3 cells into male nude mice. Human U87 glioma tumors were obtained by intracranial injection. In vivo fluorescence imaging was accomplished by illuminating the animal with light from a laser diode (785 nm, 80 mW for IGC; 660 nm, 35 mW for Cy 5.5 dyes) expanded to an approximate 8 cm diameter circular area. The re-emitted fluorescent light was collected by an image intensifier (model F[…], ITT Night Vision, Roanoke, Va.) lens-coupled to a CCD camera (model CH350, Photometrics, Tucson, Ariz.). The imaging was designed so that the field of view could be varied from 3×3 cm to over 12×12 cm by varying the image distance of the 50 mm lens used to focus the image onto the photocathode of the intensifier. The lens was fitted with a holographic notch-plus filter (785 nm center wavelength for ICG and 660 nm center wavelength for Cy5.5 dyes; Kaiser Optical Systems, Inc., Ann Arbor, Mich.) and a bandpass filter (830 nm center wavelength for ICG, 710 nm center wavelength for Cy5.5 dyes) to reject back-scattered and reflected excitation photons. Image acquisition was accomplished using V++ software (Digital Optics, Auckland, New Zealand) and obtained images were stored in uncompressed tagged image file format (tiff). […]"}}, "note": "Positions of bridges follow the written chain, without caps; N, C: chain ends. Cy5.5 = cyanine near-infrared dye Cy5.5, conjugated via its NHS ester to the amino group"}
{"substance": "Cy5.5-c(KAHWGFTLD)NH2 ({Cy5.5}-KAHWGFTLD-NH2; lactam 1-9)", "values": [{"measurement": "Visualization of tumor in NIR image", "setting": "HT1080 tumor", "value": "clearly visualized with minimal background signal"}, {"measurement": "Binding and retention in the tumor (NIR image)", "setting": "human glioma U87 tumor; intracranial U87, tumor 3-4 mm, 12 days after inoculation, 38 hours after injection, intact animal and excised brain", "value": "clearly depicted"}, {"measurement": "Visualization of small tumor in NIR image", "setting": "human glioma U87 tumor; subcutaneous U87, lesion less than 2 mm, 3 days after inoculation, 24 and 48 hours after injection", "value": "clearly visualized"}, {"measurement": "Visualization of tumor in NIR image", "setting": "MDA-MB-468 tumors", "value": "clearly visualized"}, {"measurement": "Visualization of tumor in NIR image", "setting": "KS1767 tumors", "value": "clearly visualized"}, {"measurement": "Fluorescent signal in tumor", "setting": "SKBr-3 tumors", "value": "strong fluorescent signal"}, {"measurement": "Binding to tumor cells", "setting": "human tumor cells; SKBr-3, HT1080, MDA-MB-435, MDA-MB-468, U87 (PC-3 and U87 for the Tyr analogue), 37° C.", "value": "bound"}, {"measurement": "Co-localization with MMPs (MMP-2, MMP-8, MMP-9 staining)", "setting": "human tumor cells; all cell lines tested", "value": "co-localized with MMPs"}, {"measurement": "Fluorescent signal in contra lateral tibia region preinjected with saline", "setting": "[1]; control leg, i.v. injection of imaging agent", "value": "no fluorescent signal was detected"}, {"measurement": "Visualization of small tumor in NIR image", "setting": "[1]; intratibia PC-3, no lesion by X-ray, 3 days after inoculation, 24 and 48 hours after injection", "value": "clearly visualized"}, {"measurement": "Presence of tumors shown in NIR images (specificity versus scrambled peptide)", "setting": "[1]; intratibia PC-3 inoculated 3 days earlier, images 24 hours after injection", "value": "clearly showed the presence of tumors"}]}
